Series [1] has as its target T1, delF508-CFTR (Homo sapiens, UniProt P13569, DEL508-508). The series can be described thus: Iodide efflux test of delF508 addressing in CF15 cells.
Procedure: These cells will therefore overexpress the CFTR protein. • Culture medium: MEM alpha medium (GIBCO)+7% foetal calf serum+0.5% penicilline/streptomycin+100 μM methotrexate (amethopterine, Sigma). • CF15 cells: CF15 cells are human nasal epithelial cells expressing the ΔF508-CFTR gene. • Culture medium: DMEM+HAM F12 medium+10% FCS+0.6% penicilline/streptomycin+growth factors (5 μg/ml insulin, 5 μg/ml transferrin, 5.5 μM epinephrin, 0.18 mM adenine, 10 ng/ml EGF, 2 nM T3, 1.1 μM hydrocortisone). • Calu-3 cells: Calu-3 cells are human lung epithelial cells expressing the wild-type CFTR gene. • Culture medium: DMEM/F12 medium with glutamax+7% foetal calf serum+1% penicillin/streptomycin.
Measurements of chloride ion transport in the cells were performed using the radioactive iodide efflux technique (Becq and al., 1999; Dormer and al., 2001). The ^125I tracer is incorporated into the intracellular milieu. The quantity of radiotracer coming out of the cell is then measured after adding various pharmacological agents. Iodide is used as a tracer of chloride ion transport. ^125I has the advantage of being short-lived compared to other markers such as ^35CI (respective half-lives: 30 days and 300,000 years).
The cells are incubated in an appropriate medium in 24-well plates. The cells are rinsed twice with efflux medium (136.6 mM NaCl, 5.4 mM KCl, 0.3 mM KH2PO4, 0.3 mM NaH2PO4, 4.2 mM NaHCO3, 1.3 mM CaCl2, 0.5 mM MgCl2, 0.4 mM MgSO4, 10 mM HEPES, 5.6 mM D-glucose) in order to eliminate dead cells, which release radioactivity in an anarchic fashion. The cells are then incubated with a 500-μl load (1 μCi/ml ^125INa) for 30 min for CHO-WT or 1 hr for CF15 and Calu-3 cells. The iodide equilibrates on either side of the cell membrane. The following steps are performed using a MultiPROBE probe (Packard): the loading medium is rinsed with efflux medium in order to eliminate extracellular radioactivity. The supernatant is collected every minute into haemolysis tubes and the medium is replaced by an equivalent volume of medium (500 μl). No drug is added to the samples taken in the first three minutes in order to obtain a stable baseline characterising the passive exit of I ions. The 7 samples that follow are obtained in the presence of the molecule to be tested. At the end of the experiment, the cells are lysed by adding 500 μl of 0.1 N NaOH/0.1% SDS (30 min), which allows determining the level of radioactivity remaining inside the cell. The radioactivity present in the haemolysis tubes is measured as counts per minute (cpm) using a Cobra II gamma counter (Packard). The results (cpm) are expressed as velocity of radioactive iodide efflux (R) according to the formula: R (min^−1)=[In(^125I t1)−In(^125I t2)]/(t1−t2) where ^125I t1=at time t1 and ^125I t2=at time t2. This iodide flux is represented by a graph. In order to quantify the iodide efflux due to administration of the tested molecule, the relative flux is calculated as follows in order to ignore the basal flux: Relative velocity (min^−1)=Rpeak−Rbasal. […] The results are presented in the form of a mean +/−SEM. Student's statistical test is used to compare the effect of the various drugs with the controls (the corresponding P<0.01 values are considered to be statistically significant).
For each experiment, the addition of a cocktail (10 μM Forskoline+30 μM Genisteine) allows activation of the CFTR when the latter is localised in the membrane. This allows an iodide efflux to be observed if delF508 addressing has been restored.
For series [2], the target named is T2, wild-type CFTR (Homo sapiens, UniProt P13569). The series is described as follows: Iodide efflux test of CFTR activation in Calu-3 cells. The format is cell-based. The note with it: n=8, controls forskoline 5 μM and MPB-91 250 μM. The method, then:
The controls used were forskoline (5 μM, n=8) and MPB-91 (250 μM, n=8).

In series [3] the target is T2, wild-type CFTR. The series can be described thus: Iodide efflux test of CFTR addressing in Calu-3 cells. The format is cell-based. The note with it: Calu-3 cells treated 2 hrs, 100 μM.
A further series relates to CHO-WT cells. The series is described as follows: MTT cytotoxicity test. The note with it: 2 hrs incubation, different concentrations. It counts as cell-based, Chinese Hamster. How it is done: The MTT cytotoxicity test is a […] test based on the capacity of mitochondrial dehydrogenases to metabolise MTT (a yellow tetrazolium salt) into formazan (purple). The absorbance is proportional to the concentration of converted dye and can then be measured by spectrophotometry. The cells are incubated in 96-well microplates in the presence of the agent to be tested for 2 hours. Three controls are performed: 100% live cells (cells without any agent); 0% live cells (cells left under normal atmosphere); blank (medium without cells). The cells are rinsed with RPMI medium without phenol red in order for the colour of the medium not to interfere with absorbance measurements. The cells are then incubated for 4 hours with 100 μl RPMI solution supplemented with MTT (0.5 mg/ml). The medium is eliminated and 100 μl DMSO is added to dissolve the converted dye (formazan). The absorbance is measured by spectrophotometry at 570 nm (purple); 630 nm (background noise). In order to ignore the background noise, the following calculation is performed: DOreelle=DO570nm−DO630nm.
In order to test the cytotoxicity of roscovitine, CHO-WT cells were incubated for 2 hrs with different concentrations of inhibitors before being tested for viability with MTT.
Background: Formazan colour is commonly taken as a measure of viable cells.

Series [4] concerns the target T1, delF508-CFTR. The series can be described thus: Immunoprecipitation and Western-Blot of delF508-CFTR in CF15 cells. Also on record: CF15 human lung epithelial cells homozygous for the delF508 deletion; endogenous in cells; host or cells: CF15 human epithelial cells, homozygous delF508. Conditions: 2 hrs, 100 μM. The format is cell-based. How it is done: The study of delF508-CFTR protein addressing is performed in the laboratory by using a combination of pharmacological, cellular imagery, biochemical and electrophysiological tests on CF15 human lung epithelial cells homozygous for the delF508 deletion. Results of immunoprecipitation and Western-Blot analyses of non mutated CFTR from wild-type CHO cells and delF508 cells treated for 2 hrs with 100 μM of the tested compound (FIG. 3C) or untreated cells (control). CF15 cells treated for 24 hrs at 27° C. (FIG. 3B) or for 2 hrs with 10 μM thapsigargin (TG) were used as a positive control.

The target of series [5] is T1, delF508-CFTR. The series can be described thus: Immunolocalisation of delF508-CFTR in CF15 cells (confocal). The format is cell-based. Also on record: CF15 human lung epithelial cells homozygous for the delF508 deletion; endogenous in cells; host or cells: CF15 human epithelial cells, homozygous delF508. The note with it: 2 hrs treatment, 100 μM. How it is done: Immunolabelling allows visualising the cellular localisation of the CFTR protein by means of an anti-CFTR primary antibody (Ab), and a secondary Cy3-labelled fluorescent antibody directed against the primary antibody. The cells are first seeded on cover slips in an appropriate culture medium. The cells are then washed 3 times with TBS (157 mM NaCl, […] Tris base, pH 7.4) for 5 min. each time and then fixed by adding 3% TBS-paraformaldehyde for 20 min. After 3 washes with TBS (5 min. each), the cells are incubated with 0.1% TBS-triton (10 min) to make holes in the cell membrane, and then washed 3 times with TBS before being exposed to 0.5% TBS-BSA-0.05% saponin for 1 hr. The cells are then incubated with the primary anti-CFTR C terminal antibody (2 μg/ml) for 1 hr. The cells are washed 3 times (5 min. each) with TBS-BSA-saponin before incubating with the GAM-cy3 secondary antibody (1/400) for 1 hr. After 2 TBS washes (5 min. each), the nuclei are labelled by incubating with Topro3 (1/1,000) for 5 min. Finally, the cover slips can be mounted on a glass slide after 3 final TBS washes (5 min. each). The slides are analysed with a confocal microscope (Bio-Rad) using laser excitation at appropriate wave-lengths. In order to differentiate Cy3 from Topro3 labelling, the colour of the Topor3 fluorescence has been changed to blue (colour of the nuclei). […]

In series [6] the target is T1, delF508-CFTR. The series can be described thus: Competition between roscovitine and ER chaperone machinery (iodide efflux). On the set-up: CF15 human lung epithelial cells homozygous for the delF508 deletion; endogenous in cells; host or cells: CF15 human epithelial cells, homozygous delF508. The format is cell-based. The text has this:
The competition between CFTR-T1 and the ER chaperone machinery is illustrated by FIGS. 6A and 6B.
The table below summarises the roscovitine and ER chaperone machinery competition experiments performed by the iodide efflux technique. • inhibition, ** P<0.01, * P<0.1, ns P>0.1 (Student's t-test)

[7] abbreviates: read-out: Ec50 (concentration giving 50% of maximal efficiency) for delF508 addressing, CF15 cells, 2 hrs at 37° C., stimulation with 10 μM Forskoline+30 μM Genisteine, n=4.

“Also recorded” adds a separate entry of the source. Like-named read-outs stand apart in the source and are kept apart here.

This note sets out measurements from patent US8492420B2, “Use of purine derivatives for the production of medicaments for the treatment of mucoviscidosis and diseases related to protein addressing errors in cells” (Centre National de la Recherche Scientifique-CNRS, priority 2004, dated 2013).

T1 sequence (P13569 with tags, fused parts or gaps DEL508-508): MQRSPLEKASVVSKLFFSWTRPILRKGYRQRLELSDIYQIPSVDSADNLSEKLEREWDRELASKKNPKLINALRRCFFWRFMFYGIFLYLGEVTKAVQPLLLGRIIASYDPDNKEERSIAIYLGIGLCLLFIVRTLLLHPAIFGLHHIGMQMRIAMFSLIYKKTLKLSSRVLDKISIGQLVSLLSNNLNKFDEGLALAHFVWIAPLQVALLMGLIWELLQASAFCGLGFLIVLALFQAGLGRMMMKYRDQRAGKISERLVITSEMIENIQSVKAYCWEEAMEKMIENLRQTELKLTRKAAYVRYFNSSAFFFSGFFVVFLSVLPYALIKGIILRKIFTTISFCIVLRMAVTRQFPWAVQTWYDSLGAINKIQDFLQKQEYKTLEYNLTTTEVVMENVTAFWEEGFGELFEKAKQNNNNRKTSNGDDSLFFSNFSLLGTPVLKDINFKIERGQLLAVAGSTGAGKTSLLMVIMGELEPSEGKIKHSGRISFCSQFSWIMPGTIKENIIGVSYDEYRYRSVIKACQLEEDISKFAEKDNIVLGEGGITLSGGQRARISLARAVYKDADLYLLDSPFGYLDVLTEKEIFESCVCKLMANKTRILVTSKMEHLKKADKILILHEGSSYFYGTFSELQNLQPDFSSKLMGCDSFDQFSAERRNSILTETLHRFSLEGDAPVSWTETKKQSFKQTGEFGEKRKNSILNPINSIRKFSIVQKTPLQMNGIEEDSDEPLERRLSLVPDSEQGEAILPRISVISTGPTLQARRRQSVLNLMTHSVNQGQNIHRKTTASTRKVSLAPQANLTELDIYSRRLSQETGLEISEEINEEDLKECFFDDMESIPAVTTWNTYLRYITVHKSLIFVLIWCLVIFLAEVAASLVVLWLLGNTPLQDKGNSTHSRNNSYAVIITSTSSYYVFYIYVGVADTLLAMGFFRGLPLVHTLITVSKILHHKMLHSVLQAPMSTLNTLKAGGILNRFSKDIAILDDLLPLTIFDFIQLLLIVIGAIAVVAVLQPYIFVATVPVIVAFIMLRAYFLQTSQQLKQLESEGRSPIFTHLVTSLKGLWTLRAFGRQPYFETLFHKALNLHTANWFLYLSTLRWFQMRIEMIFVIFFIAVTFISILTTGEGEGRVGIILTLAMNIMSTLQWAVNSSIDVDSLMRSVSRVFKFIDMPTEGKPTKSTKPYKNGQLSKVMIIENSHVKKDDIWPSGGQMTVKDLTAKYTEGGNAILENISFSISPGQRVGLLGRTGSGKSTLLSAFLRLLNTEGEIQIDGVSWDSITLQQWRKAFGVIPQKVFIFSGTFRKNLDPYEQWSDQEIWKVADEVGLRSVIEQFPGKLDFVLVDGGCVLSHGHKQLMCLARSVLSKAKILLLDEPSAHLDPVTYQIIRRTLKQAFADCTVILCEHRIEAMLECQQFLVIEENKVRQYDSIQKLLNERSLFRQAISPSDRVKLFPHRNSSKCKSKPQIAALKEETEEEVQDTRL
T2 sequence (P13569 whole entry): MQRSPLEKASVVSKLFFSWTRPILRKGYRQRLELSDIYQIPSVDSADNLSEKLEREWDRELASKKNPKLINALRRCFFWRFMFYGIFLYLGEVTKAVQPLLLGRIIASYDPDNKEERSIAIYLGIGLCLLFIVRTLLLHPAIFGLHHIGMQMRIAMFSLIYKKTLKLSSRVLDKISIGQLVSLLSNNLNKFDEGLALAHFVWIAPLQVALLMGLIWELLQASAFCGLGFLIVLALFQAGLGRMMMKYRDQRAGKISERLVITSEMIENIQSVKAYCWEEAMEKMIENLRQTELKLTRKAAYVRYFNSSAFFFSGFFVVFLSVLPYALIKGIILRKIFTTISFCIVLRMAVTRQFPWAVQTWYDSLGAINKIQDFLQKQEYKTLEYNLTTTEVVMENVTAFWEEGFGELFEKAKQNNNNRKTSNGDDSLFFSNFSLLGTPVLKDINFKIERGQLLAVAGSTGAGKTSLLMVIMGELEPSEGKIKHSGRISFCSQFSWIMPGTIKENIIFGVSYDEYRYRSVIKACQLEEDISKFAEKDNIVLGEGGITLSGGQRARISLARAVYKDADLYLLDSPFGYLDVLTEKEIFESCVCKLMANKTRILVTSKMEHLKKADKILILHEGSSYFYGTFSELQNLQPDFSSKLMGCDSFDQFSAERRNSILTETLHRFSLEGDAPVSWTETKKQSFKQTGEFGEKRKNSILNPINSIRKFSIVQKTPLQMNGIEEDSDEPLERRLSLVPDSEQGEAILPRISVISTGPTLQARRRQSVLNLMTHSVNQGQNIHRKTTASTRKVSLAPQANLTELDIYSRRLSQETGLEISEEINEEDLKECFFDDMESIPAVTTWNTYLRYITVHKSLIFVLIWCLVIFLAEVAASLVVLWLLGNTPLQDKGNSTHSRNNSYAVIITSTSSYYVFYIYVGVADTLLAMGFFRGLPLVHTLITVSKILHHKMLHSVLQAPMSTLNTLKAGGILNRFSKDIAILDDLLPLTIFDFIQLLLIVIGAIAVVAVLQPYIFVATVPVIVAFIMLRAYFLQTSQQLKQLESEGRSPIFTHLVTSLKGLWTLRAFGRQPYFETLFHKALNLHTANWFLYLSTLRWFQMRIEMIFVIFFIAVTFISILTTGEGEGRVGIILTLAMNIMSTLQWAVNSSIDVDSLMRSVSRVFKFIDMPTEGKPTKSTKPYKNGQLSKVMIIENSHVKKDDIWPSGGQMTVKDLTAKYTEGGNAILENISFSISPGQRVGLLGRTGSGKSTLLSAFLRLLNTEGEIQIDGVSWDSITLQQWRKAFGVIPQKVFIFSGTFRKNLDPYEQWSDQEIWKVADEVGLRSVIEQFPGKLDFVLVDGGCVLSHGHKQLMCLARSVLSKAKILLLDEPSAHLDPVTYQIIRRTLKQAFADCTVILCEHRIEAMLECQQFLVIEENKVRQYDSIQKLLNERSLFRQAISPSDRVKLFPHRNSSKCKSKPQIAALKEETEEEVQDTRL

`CC[C@@H](CO)Nc1nc(NCc2ccccc2)c2ncn(C(C)C)c2n1` [S-Roscovitine, 2-(S)(1-ethyl-2-hydroxyethylamino)-6-benzylamino-9-isopropylpurine]: the EC50 on delF508-CFTR [1] (setting [7]) stood at 32 ± 1.4 µM.

Turning to `CC[C@H](CO)Nc1nc(NCc2ccccc2)c2ncn(C(C)C)c2n1` [R-Roscovitine, 2-(R)-(1-ethyl-2-hydroxyethylamino)-6-benzylamino-9-isopropylpurine], the EC50 on delF508-CFTR [1] (setting [7]) worked out at 34 ± 1.9 µM.

Consider `CC[C@H](CO)Nc1nc(NCc2ccccc2)c2ncn(C(C)C)c2n1` [roscovitine], for which the “Activation of wild-type CFTR or other anionic transporter” value at wild-type CFTR [2] was “not found to be an activator”. For the same molecule, the “CFTR activity after treatment (wild-type CFTR addressing)” value at wild-type CFTR [3] is “not significantly different from the controls”. Further, the “Cell viability (MTT)” value in the series with CHO-WT cells is “viable at all concentrations”. Further, on delF508-CFTR [1], the EC50 was found to be 56 µM; the “Function of readdressed delF508-CFTR (iodide efflux and patch-clamp on whole cells)” value was “functional”. Moreover, the “Treatment time for maximal correction of delF508-CFTR chloride ion channel function” value on delF508-CFTR [1] (CF15 cells, 100 μM) stood at 2 h. The “Restoration of delF508 addressing and ion transport function” value at delF508-CFTR [1] (CF15 cells, 2 hrs at 37° C., two forms (R and S)) is “restores addressing of the delF508 protein”. In addition, the “Maturation of delF508-CFTR (band C in Western-Blot)” value at delF508-CFTR [4] is “appearance of the mature CFTR band”. Also, the “Maturation of delF508-CFTR (band C in Western-Blot)” value at delF508-CFTR [4] (listed as CFTR-T1) is “maturation of delF508-CFTR (band C appears in the Western-Blot)”. Besides, on delF508-CFTR [5], the “Localisation of delF508-CFTR protein” value is given as “localised in the plasma membrane compartment; also recorded: correct delF508-CFTR relocation to the plasma membrane; also recorded: allowed relocation of the delF508-CFTR protein to the membrane”. Besides, the “Competition with inhibitors of the chaperone and degradation machinery” value on delF508-CFTR [6] is “competed with inhibitors of calnexin/delF508-CFTR binding as well as inhibitors of the degradation pathway”. Besides, the “Effect of Brefeldine A (BFA) on the compound's action” value at delF508-CFTR [6] (BFA, inhibitor of ERGIC vesicular traffic) is reported as “inhibition”. Besides, the “Effect of MG132 on the compound's action” value on delF508-CFTR [6] (MG132, proteasome inhibitor) was “no modulation is observed”.
